Assay results published in patent US20150072023A1, “[…] NITRIC OXIDE FOR TREATING RESPIRATORY DISEASES” (Advanced Inhalation Therapies (AIT) Ltd., priority 2013, published 2015).
“Also recorded” adds a separate entry of the source.

Assays:
[1] = tested on: human respiratory syncytial virus (rgRSV30); assay: Plaque assay of gNO-exposed respiratory syncytial virus; type: cell-based; details: 160 ppm exogenous gaseous NO
[2] = Prospective phase I open label safety study of intermittent 160 ppm gNO inhalation in healthy adults; type: in vivo, human
Description: 10 healthy adult volunteer subjects (5 males, 5 females), aged 20 to 62 years, were enrolled in the study after screening their medical history, a physical examination, pulmonary function tests and blood values. Exclusion criteria included individuals less than 19 years of age, pregnant females and unwilling to practice birth control during the study, diagnosed with pulmonary disease, epistaxis, hemoptysis, methemoglobinemia, organ transplant recipient or receiving antibiotic therapy.
After obtaining informed consent, treatment was initiated within 5 days of enrollment. Subjects were housed in a hospital ward and received 160 ppm gNO for 30 minutes every four hours (Q4h), five times a day, for five consecutive days by inhalation. Subjects returned for follow-up evaluations 3, 7 and 21 days after the final gNO administration. Subject safety was determined by monitoring vital signs, methemoglobin levels, lung function, blood chemistry, hematology, prothrombin time, inflammatory cytokine/chemokines levels and endothelial activation. These parameters were compared to baseline and at various time-points during and after gNO administration.
Subjects were administered gNO through a modified disposable mouthpiece to maximize mixing. Inspiration was spontaneously initiated by the subject from a conventional intermittent positive pressure breathing respirator (Mark-7, Carefusion, USA) in fixed flow mode delivering 48 liters per minute (LPM). Flows of gas were verified with a calibrated mass flow meter (TSI, USA). Gaseous nitric oxide (gNO, obtained at INOmax, Ikaria, USA) at a concentration of 800 ppm delivered at a flow of 12 LPM was titrated into a distal delivery port on the mouth piece connected to the respirator during inspiratory phase only (pressure switch). The Mark 7 respirator was supplied by an air/oxygen blender (Bird Sentry, Carefusion, USA) set to deliver 26% oxygen.
The levels of gNO, NO2, O2 and methemoglobin were monitored during the administration of gNO. The target gas mixture was 160 ppm gNO with a nitrogen dioxide (NO2) level of less than 5 ppm and an oxygen (O2) level ranging from 21% to 25%. Inspiratory NO, NO2 and O2 levels were continuously monitored by sampling from the mouthpiece sample port located about 6 millimeters from the mouth of the subject with an AeroNOx (Pulmonox, AB, Canada) NO, NO2 and O2 electrochemical analyzer. Delivery safety was determined by the number of occasions that NO2 exceeded 5 ppm, gNO exceeding 10% variation and O2 dropping below 20% during gNO administration. A commercially available noninvasive pulse oximeter (Rad 57, Masimo Corporation, USA) was used to measure saturation levels at the periphery of methemoglobin (SpMet).
These parameters were measured continuously during every gNO administration course and for 3.5 hours after the first treatment of the day. Daily serum samples were collected and frozen at −80° C. and the serum […] level was measured using the Griess reagent.
Subjects underwent full pulmonary function tests (PFT), including lung diffusing capacity (DLCO) by a trained technician utilizing a calibrated pulmonary function system (Jaeger MasterScreen, VIASYS Healthcare, USA) on screening and days 2, 8, 12 and 26. Spirometry test (Microloop by Micro Medical, England) was performed on days 1, 3 and 4. Effect of gNO on lung function and DLCO was determined by changes from baseline, treatment days and follow up days.
General medical examinations were performed by a pulmonary physician on screening and on days 8, 12 and 26 to obtain oxygenation and vital sign measurements. Abbreviated physical examination by a registered nurse was carried out each day prior to initiation of treatments on days 1-5. Oxygenation was measured with a pulse oximeter (Rad 57, Masimo Corporation, USA) which was used according to manufacturer's guidelines to measure functional oxygen saturation of arterial hemoglobin (SpO2) and heart rate. […]

[3] = Randomized double blind study of intermittent gNO inhalation in infants with bronchiolitis, interim results; type: in vivo, human; details: infants 2-12 months
Description: The following is an exemplary protocol for clinical studies based on the methods according to embodiments of the present invention, aimed at treatment of bronchiolitis in humans. Specifically, the topic of the study is a randomized double blind evaluation of efficacy, safety and tolerability of nitric oxide given intermittently via inhalation to subjects with bronchiolitis.
An improvised inhalation device is based on standard hospital equipment and hospital oxygen source. For example, oxygen is supplied from the main hospital oxygen system via an oxygen blender, such as for example, Bird model 03800, followed by a hospital's oxygen mass flow meter. The oxygen-rich air is monitored so as to reach a maximal final concentration of about 40% O2. The blended air/oxygen is supplied to the subject via a Y-shape connector attached next to a standard hospital face mask such as for example, a Hospiltak mask by Unomedical Inc.
gNO flow, tapped from a tank containing 800 ppm nitric oxide in 99.999% pure N2, supplied by an authorized gas provider in, for example, 50 or 30 litter containers with 120 bar or 150 bar respectively, is adjusted by passing through a standard hospital's regulator, such as for example CareFusion™ model 400, and the hospital mass flow meter, such as a CareFusion™ model 77063.
The gNO flow is adjusted before each inhalation cycle based on the gNO concentration detected in the subject's mask. After a fresh system calibration, the regulator and the mass flow meter are adjusted to deliver 160 ppm of gNO at 5 to 15 liters per minute. gNO is supplied to the subject via the second arm of the Y shaped connector (specified above) attached next to the face mask. Mask and tubing ports are used to monitor continuously gNO and NO2 concentrations and FiO2 values delivered to the subject.
Halitus (exhalation) is monitored by, for example, end-tidal CO2 (EtCO2). EtCO2 is monitored using standard equipment such as Microcap® Portable Capnography Monitor, Cat.# CSO4179 by Oridion, Israel, with nasal prongs such as (Infant Neonate Cat.#008179 by Oridion, Israel.
Methemoglobin (SpMet) and oxygen saturation or dissolved oxygen (SpO2) levels are monitored continuously using a dedicated monitor such as for example RAD 57 by Masimo.
The population for the study is 44 children of 2-12 months old diagnosed with bronchiolitis, whom required hospitalization (expected dropout rate is 10%). The population is split into two groups: Group 1, referred to as the treatment group, receives intermittent (5×30 minutes, a day) inhalation of 160 ppm gNO in addition to the standard treatment of O2 administration, for up to 5 days. Between gNO inhalations, the subjects continue to receive the standard inhalation treatment (O2). Group 2, referred to as the control group, receives continuous inhalation of the standard treatment (O2).
Group 1 (treatment group) receives the standard treatment (O2) combined with the inhalation via face mask of […] administered for 30 minutes every four hours, keeping a minimum of 3 hours between the end of one gNO inhalation cycle and the beginning of the next cycle, five times a day for five consecutive days or until a decision to discontinue therapy. The maximal cumulative exposure to nitric oxide is estimate at 2,000 ppm hours.

S. aureus = details: agar plates exposed to gNO; cited from earlier work
P. aeruginosa = details: agar plates exposed to gNO; cited from earlier work
[4] = tested on: influenza A/victoria/H3N2; details: 160 ppm exogenous gNO, MDCK cell model; cited from earlier work
[5] = tested on: highly pathogenic Avian Influenza H7N3; details: cited from earlier work
[6] = 300 ppm gNO, first 1-2 days, group of 10 rats; cited from earlier work
[7] = tested on: five planktonic species of methicillin resistant S. aureus (MRSA); details: 1,600 ppm hours of gNO; cited from earlier work
[8] = topical 200 ppm gNO, within the first three days of treatment; cited from earlier work
[9] = in vivo; cited from earlier work
[10] = cited from earlier work
[11] = 250 gNO administration procedures, 10 subjects
[12] = during and after gNO administration

[N]=O [gNO, nitric oxide]
infectivity [1]: reduced their infectivity | average increase of SpMet in a single treatment course ([2]; 160 ppm gNO for 30 minutes, ten individuals): 0.9% | adverse events / tolerability [2, 11]: do not cause lung injury or other signs of adverse effects in humans; also recorded: Neither significant adverse events nor adverse events attributable to gNO inhalation occurred; also recorded: safe and well tolerated; also recorded: no significant adverse events were observed | number of minor adverse events reported [2, 11]: Three | plasma cytokine levels of TNF, IL-6, IL-8, IL-10, IL-1b and IL-12p70 ([2]; cytometric bead array, vs baseline): unaffected; also recorded: remained constant | pulmonary function tests [2, 12]: impacts lung function only minimally; also recorded: remained unchanged compared to baseline values | vital signs [2, 12]: remained well within acceptable clinical margins | accumulative or residual effect on SpMet ([2]; five daily treatments for five consecutive days, follow-up 3, 7 and 21 days): no accumulative or lingering effect; also recorded: did not show any residual increase in SpMet | vascular endothelial activation factors Ang-1, Ang-2, Ang-2/Ang-1 ratio ([2]; plasma, vs baseline): not affected; also recorded: unaffected | NO2 levels during treatment [3]: below 2 ppm | pre-methemoglobin levels in each treatment [3]: less than 5% | premature withdrawal due to NO related adverse effect [3]: no infant withdrew prematurely | tolerability [3]: All patients tolerated the NO treatment | time for SpMet to return to the baseline levels ([3]; 160 ppm gNO 30 min): 210 min | effect on bacterial growth (S. aureus): bacteristatic effect | effect on bacterial growth (P. aeruginosa): bacteristatic effect | viral replication and infectivity [4]: reduced their infectivity; also recorded: capable of reducing the infectivity | viral replication and infectivity [5]: reduced their infectivity; also recorded: capable of reducing the infectivity | number of animals that died [6]: Six | bacterial population [7]: reduction in the population | biofilm [8]: no longer visibly present | radius of action from its site of origin [9]: approximately 200 microns | inhalation threshold limit value (TLV) as time-weighted average (TWA) ([10]; OSHA / Environmental Protection Agency): 25 ppm | TLV-TWA in ppm hours units ([10]; calculated): 200 ppm hours
